Laboratory results published in patent publication US11827628B2, “Compositions and methods for inhibition of the JAK pathway” (Rigel Pharmaceuticals, Inc., priority 2005, dated 2023).

Tested on: Primary human T-cells
Assay: Primary Human T-Cell Proliferation Assay Stimulated with IL-2 (CellTiter-Glo)
Assay type: cell-based
Conditions: primary human T-cell proliferation stimulated with IL-2; read-out: IC50, Example 42
Outline: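 IC50 derived from CellTiter-Glo ATP signal after 72 hours of IL-2-driven proliferation at 37° C. Cells: primary human T-cells from blood, stimulated beforehand 3-4 days on anti-CD3/anti-CD28 with IL-2, then rested from IL-2 before compound exposure in duplicate; IL-2-free wells served as unstimulated control.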

Question: Which IC50 does the source give for Cc1cc(Nc2nc(Nc3ccc(F)c(S(N)(=O)=O)c3)ncc2F)cc(C)c1OCC#N [Compound I-35, N2-(3-Aminosulfonyl-4-fluoro)phenyl-N4-(4-cyanomethoxy-3,5-dimethyl)phenyl-5-fluoro-2,4-pyrimidinediamine] here?
Answer: 1130 nM

Question: CNS(=O)(=O)c1cc(Nc2ncc(F)c(Nc3ccc(Cn4ccnc4)cc3)n2)ccc1C [III-83, 5-Fluoro-N2-[3-(N-methylaminosulfony)-4-methylphenyl]-5-fluoro-N4-[4-(1-imidazolylmethyl)phenyl]-2,4-pyrimidinediamine] was tested. Which IC50 did it give?
Answer: 96.2 nM

Question: How did the IC50 turn out when Cc1cc(Nc2nc(Nc3cccc(S(N)(=O)=O)c3)ncc2F)ccc1OC(C)C#N (racemic) [Compound I-61, Racemic N2-(3-Aminosulfonyl)phenyl-N4-[4-(1-cyano)ethoxy-3-methyl]phenyl-5-fluoro-2,4-pyrimidinediamine] was run?
Answer: 123 nM

Question: How did the IC50 turn out when Cc1cnc(Nc2ccc(S(N)(=O)=O)cc2)nc1Nc1ccc(OCC#N)cc1 [Compound I-57, N2-(4-Aminosulfonylphenyl)-N4-(4-cyanomethoxyphenyl-5)-methyl-2,4-pyrimidinediamine] was run?
Answer: 53.1 nM

Question: With COc1cc(Nc2ncc(F)c(Nc3ccc(OC(C)C#N)cc3)n2)ccc1S(N)(=O)=O (racemic) [Compound I-70, Racemic N2-(4-Aminosulfonyl-3-methoxy)phenyl-N4-[4-(1-cyano)ethoxy]phenyl-5-fluoro-2,4-pyrimidinediamine] as the compound, how does the IC50 read?
Answer: 573 nM

Question: For Cc1cc(Nc2nc(Nc3ccc(F)c(S(N)(=O)=O)c3)ncc2F)ccc1OCC#N [Compound I-34, N2-(3-Aminosulfonyl-4-fluoro)phenyl-N4-(4-cyanomethoxy-3-methyl)phenyl-5-fluoro-2,4-pyrimidinediamine], which IC50 is on record?
Answer: 806 nM

Question: How did the IC50 turn out when CC(C#N)Oc1ccc(Nc2nc(Nc3cccc(S(N)(=O)=O)c3)ncc2F)cc1 (racemic) [Compound I-65, Racemic N2-(3-Aminosulfonyl)phenyl-N4-[4-(1-cyano)ethoxy]phenyl-5-fluoro-2,4-pyrimidinediamine] was run?
Answer: 47.3 nM

Question: How did the IC50 turn out when CC(C#N)Oc1ccc(Nc2nc(Nc3ccc(S(N)(=O)=O)cc3)ncc2F)cc1 (racemic) [Compound I-66, Racemic N2-(4-Aminosulfonyl)phenyl-N4-[4-(1-cyano)ethoxy]phenyl-5-fluoro-2,4-pyrimidinediamine] was run?
Answer: 287 nM

Question: How did the IC50 turn out when Cc1ccc(Nc2ncc(F)c(Nc3ccc(OCC#N)c(Cl)c3)n2)cc1S(N)(=O)=O [Compound I-43, N2-(3-Aminosulfonyl-4-methylphenyl)-N4-(3-chloro-4-cyanomethoxypheny)-5-fluoro-2,4-pyrimidinediamine] was run?
Answer: 183 nM

Question: For Cc1ccc(Nc2ncc(F)c(Nc3ccc(OCC(N)=O)cc3)n2)cc1S(N)(=O)=O [Compound I-94, N4-(4-Aminocarbonylmethoxy)phenyl-N2-(3-aminosulfonyl-4-methyl)phenyl-5-fluoro-2,4-pyrimidinediamine], which IC50 is on record?
Answer: 563 nM

Question: Cc1ccc(Nc2ncc(F)c(Nc3ccc(Cn4ccnc4)cc3)n2)cc1S(N)(=O)=O [III-82, N2-(3-Aminosulfonyl-4-methylphenyl)-5-fluoro-N4-[4-(1-imidazolylmethyl)phenyl]-2,4-pyrimidinediamine] was tested. Which IC50 did it give?
Answer: 160 nM

Question: For Cc1ccc(Nc2ncc(F)c(Nc3ccc(NC(=O)CC#N)c(Cl)c3)n2)cc1S(N)(=O)=O [Compound I-83, N2-(3-Aminosulfonyl-4-methylphenyl)-N4-[3-chloro-4-(N-cyanoacetyl)aminophneyl]-5-fluoro-2,4-pyrimidinediamine], which IC50 is on record?
Answer: 1760 nM

Question: Which IC50 does the source give for COc1cc(Nc2ncc(F)c(Nc3ccc(OC(C)C#N)c(C)c3)n2)ccc1S(N)(=O)=O (racemic) [Compound I-64, Racemic N2-(4-Aminosulfonyl-3-methoxy)phenyl-N4-[4-(1-cyano)ethoxy-3-methyl]phenyl-5-fluoro-2,4-pyrimidinediamine] here?
Answer: 1880 nM

Question: Which IC50 does the source give for Cc1cc(Nc2nc(Nc3ccc(C)c(S(N)(=O)=O)c3)ncc2F)ccc1OC(C)C#N (racemic) [Compound I-62, Racemic N2-(3-Aminosulfonyl-4-methyl)phenyl-N4-[4-(1-cyano)ethoxy-3-methyl]phenyl-5-fluoro-2,4-pyrimidinediamine] here?
Answer: 376 nM

Question: CNS(=O)(=O)c1cc(Nc2ncc(F)c(NCCc3ccc(-c4ccncc4)cc3)n2)ccc1C [III-78, 5-Fluoro-N2-[3-N-(methyl)aminosulfonyl-4-methylphenyl]-N4-[4-(4-pyridinyl)phenethyl]-2,4-pyrimidinediamine] was tested. Which IC50 did it give?
Answer: 204 nM

Question: For CC(C)(C#N)Oc1ccc(Nc2nc(Nc3ccc(S(N)(=O)=O)cc3)ncc2F)cc1 [Compound I-75, N2-(4-Aminosulfonyl)phenyl-N4-[4-(1-cyano-1-methyl)ethoxy]phenyl-5-fluoro-2,4-pyrimidinediamine], which IC50 is on record?
Answer: 3300 nM

Question: How did the IC50 turn out when Cc1cc(Nc2nc(Nc3ccc(F)c(S(N)(=O)=O)c3)ncc2F)ccc1OC(C)C#N (racemic) [Compound I-69, Racemic N2-(3-Aminosulfonyl-4-fluoro)phenyl-N4-[4-(1-cyano)ethoxy-3-methyl]phenyl-5-fluoro-2,4-pyrimidinediamine] was run?
Answer: 1030 nM

Question: How did the IC50 turn out when Cc1ccc(Nc2ncc(F)c(Nc3ccc(OC(C)C#N)cc3)n2)cc1S(N)(=O)=O (racemic) [Compound I-67, Racemic N2-(3-Aminosulfonyl-4-methyl)phenyl-N4-[4-(1-cyano)ethoxy]phenyl-5-fluoro-2,4-pyrimidinediamine] was run?
Answer: 157 nM

Question: Which IC50 does the source give for CC(C)(C#N)Oc1ccc(Nc2nc(Nc3cccc(S(N)(=O)=O)c3)ncc2F)cc1 [Compound I-76, N2-(3-Aminosulfonyl)phenyl-N4-[4-(1-cyano-1-methyl)ethoxy]phenyl-5-fluoro-2,4-pyrimidinediamine] here?
Answer: 196 nM

Question: How did the IC50 turn out when Cc1cc(Nc2nc(Nc3cccc(S(N)(=O)=O)c3)ncc2F)ccc1OCC(N)=O [Compound I-92, N4-(4-Aminocarbonylmethoxy-3-methyl)phenyl-N2-(3-aminosulfonyl)phenyl-5-fluoro-2,4-pyrimidinediamine] was run?
Answer: 543 nM

Question: For CCC(=O)NS(=O)(=O)c1cccc(Nc2ncc(F)c(Nc3ccc(OCc4nc(C)no4)cc3)n2)c1 [Compound I-273], which IC50 is on record?
Answer: 193 nM

Question: Cc1ccc(Nc2ncc(F)c(Nc3ccc(OC(C)(C)C#N)cc3)n2)cc1S(N)(=O)=O [Compound I-73, N2-(3-Aminosulfonyl-4-methyl)phenyl-N4-[4-(1-cyano-1-methyl)ethoxy]phenyl-5-fluoro-2,4-pyrimidinediamine] was tested. Which IC50 did it give?
Answer: 728 nM

Question: With Cc1cc(Nc2nc(Nc3ccc(C)c(S(N)(=O)=O)c3)ncc2F)ccc1OCC(N)=O [Compound I-95, N4-(4-Aminocarbonylmethoxy-3-methyl)phenyl-N2-(3-aminosulfonyl-4-methyl)phenyl-5-fluoro-2,4-pyrimidinediamine] as the compound, how does the IC50 read?
Answer: 325 nM

Question: For Cc1ccc(Nc2ncc(F)c(Nc3cc(C)c(OC(C)C#N)c(C)c3)n2)cc1S(N)(=O)=O (racemic) [Compound I-72, Racemic N2-(3-Aminosulfonyl-4-methyl)phenyl-N4-[4-(1-cyano)ethoxy-3,5-dimethyl]phenyl-5-fluoro-2,4-pyrimidinediamine], which IC50 is on record?
Answer: 303 nM

Question: For CC(C#N)Oc1ccc(Nc2nc(Nc3ccc(F)c(S(N)(=O)=O)c3)ncc2F)cc1 (racemic) [Compound I-68, Racemic N2-(3-Aminosulfonyl-4-fluoro)phenyl-N4-[4-(1-cyano)ethoxy]phenyl-5-fluoro-2,4-pyrimidinediamine], which IC50 is on record?
Answer: 482 nM

Question: Which IC50 does the source give for Cc1ccc(Nc2ncc(F)c(Nc3cccc(OCC(N)=O)c3)n2)cc1S(N)(=O)=O [Compound I-90, N4-(3-Aminocarbonylmethoxy)phenyl-N2-(3-aminosulfonyl-4-methyl)phenyl-5-fluoro-2,4-pyrimidinediamine] here?
Answer: 2190 nM

Question: For CNS(=O)(=O)c1cc(Nc2ncc(F)c(Nc3ccc(Cc4ccncc4)cc3)n2)ccc1C [III-75, 5-Fluoro-N2-[3-(N-methylaminosulfony)-4-methylphenyl]-5-fluoro-N4-[4-(4-pyridinylmethyl)phenyl]-2,4-pyrimidinediamine], which IC50 is on record?
Answer: 220 nM

Question: Cc1ccc(Nc2ncc(F)c(Nc3ccc(OCC#N)cc3)n2)cc1S(=O)(=O)NC(=O)C(C)C [Compound I-37, N4-(4-Cyanomethyleneoxy)phenyl-5-fluoro-N2-(3-isobutyrylaminosulfonyl-4-methyl)phenyl-2,4-pyrimidinediamine] was tested. Which IC50 did it give?
Answer: 3680 nM

Question: With Cc1cc(Nc2nc(Nc3cccc(S(N)(=O)=O)c3)ncc2F)cc(C)c1OCC(N)=O [Compound I-93, N4-(4-Aminocarbonylmethoxy-3,5-dimethyl)phenyl-N2-(3-aminosulfonyl)phenyl-5-fluoro-2,4-pyrimidinediamine] as the compound, how does the IC50 read?
Answer: 1170 nM

Question: With NS(=O)(=O)c1cccc(Nc2ncc(F)c(Nc3ccc(Cn4ccnc4)cc3)n2)c1 [III-81, N2-(3-Aminosulfonylphenyl)-5-fluoro-N4-[4-(1-imidazolylmethyl)phenyl]-2,4-pyrimidinediamine] as the compound, how does the IC50 read?
Answer: 204 nM

Question: With CC(C)(C#N)Oc1ccc(Nc2nc(Nc3ccc(F)c(S(N)(=O)=O)c3)ncc2F)cc1 [Compound I-74, N2-(3-Aminosulfonyl-4-fluoro)phenyl-N4-[4-(1-cyano-1-methyl)ethoxy]phenyl-5-fluoro-2,4-pyrimidinediamine] as the compound, how does the IC50 read?
Answer: 1500 nM

Question: For Cc1cc(Nc2nc(Nc3ccc(S(N)(=O)=O)cc3)ncc2F)cc(C)c1OC(C)C#N (racemic) [Compound I-63, Racemic N2-(4-Aminosulfonyl)phenyl-N4-[4-(1-cyano)ethoxy-3,5-dimethyl]phenyl-5-fluoro-2,4-pyrimidinediamine], which IC50 is on record?
Answer: 1310 nM

Question: With Cc1cc(Nc2nc(Nc3ccc(S(N)(=O)=O)cc3)ncc2F)ccc1OC(C)C#N (racemic) [Compound I-60, Racemic N2-(4-Aminosulfonyl)phenyl-N4-[4-(1-cyano)ethoxy-3-methyl]phenyl-5-fluoro-2,4-pyrimidinediamine] as the compound, how does the IC50 read?
Answer: 2170 nM

Question: Which IC50 does the source give for N#CCOc1cccc(Nc2nc(Nc3cccc(S(N)(=O)=O)c3)ncc2F)c1 [Compound I-4, N2-(3-Aminosulfonyl)phenyl-N4-(3-cyanomethoxy)phenyl-5-fluoro-2,4-pyrimidinediamine] here?
Answer: 178 nM
